Experimental data: patent US20090069324A1, “CHEMICAL INHIBITORS OF BFL-1 AND RELATED METHODS” (The Burnham Institute, priority 2007, published 2009)
Where “and” joins values, the source holds several entries; their conditions need not be identical. Equal entries are not always repeated. Entries after “also recorded” stand apart in the source; their conditions may differ.

Legend:
[1] = biological target: T1, Bfl-1 (Homo sapiens, UniProt Q16548); assay: Bfl-1 fluorescence polarization assay (FPA/FP), competition with FITC-Bid BH3 peptide; assay type: binding
T1 construct: lacking their C-terminal transmembrane domains (approximately last 20 amino-acids); made in house; host or cells: XL-1 Blue cells (E. coli), pGEX 4T-1
T1 sequence (Q16548 1-155 limits assumed): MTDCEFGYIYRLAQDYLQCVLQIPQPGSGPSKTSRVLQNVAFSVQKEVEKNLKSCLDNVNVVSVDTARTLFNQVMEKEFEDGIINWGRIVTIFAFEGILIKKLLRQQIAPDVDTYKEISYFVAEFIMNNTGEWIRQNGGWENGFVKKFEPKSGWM
Protocol: Fluorescence polarization assays (FPA). To determine the binding affinity of anti-apoptotic Bcl-2 polypeptides to FITC-conjugated Bid BH3 peptide, fluorescence polarization assays (FPAs) were performed according to published procedures (Zhai et al., Biochem. J. 376:229-236 (2003)). […] Fluorescence polarization was measured after 10 min using an Analyst™ AD Assay Detection System (LJL Biosystem, Sunnyvale, Calif.) in phosphate-buffered saline (PBS) (pH 7.4). The IC50 determinations were performed using GraphPad Prism software (GraphPad, Inc., San Diego, Calif.).
Competition assays. Using the same procedure outlined above, 100 nM of GST-Bfl-1 protein were incubated with the compounds at 50 μM concentration for 30 min. Then, 5 nM of FITC-Bid BH3 peptide was added. Fluorescence polarization was measured after 10 min. […]

[2] = biological target: T2, Bcl-2 (Homo sapiens, UniProt P10415); assay: Bcl-2/FITC-Bim FPA selectivity assay; assay type: binding
T2 construct: lacking their C-terminal transmembrane domains (approximately last 20 amino-acids); GST (N); made in house; host or cells: XL-1 Blue cells (E. coli), pGEX 4T-1
Description: (§1) This example illustrates assays for determining the selectivity of chemical inhibitors for Bfl-1. Bfl-1, as with other Bcl-2 family proteins, participates in a very complex and intricate network of interactions with other representatives of the family. Therefore, two selectivity assays involving family members Bcl-2 and Bcl-B were developed.
(§2) For Bcl-2, a FITC-conjugated peptide corresponding to the BH3 domain of Bim was used. For Bcl-B, a FITC-conjugated peptide corresponding to a fragment of the TR3/Nur77 protein shown to bind this member of the Bcl-2 family was used.
(§3) Probe specificity for target or for cell-based/phenotypic assays data can be determined in orthogonal cell-based assay systems that address the pathway of interest. For example, compounds were tested in Bfl-1/FITC-Bid FPA and TR-FRET assays (FIGS. 7A and 7B, respectively), as well as Bcl-2/FITC-Bim FPA (FIG. 7C) and Bcl-B/FITC-TR3-R8 FPA (FIG. 7D) assays. Data represent concentration in μM x-axis) vs % displacement (y-axis).

[3] = biological target: T3, Bcl-B (Homo sapiens, UniProt Q9HD36); assay: Bcl-B/FITC-TR3-R8 FPA selectivity assay; assay type: binding
T3 construct: lacking their C-terminal transmembrane domains (approximately last 20 amino-acids); GST (N); made in house; host or cells: XL-1 Blue cells (E. coli), pGEX 4T-1
T3 sequence (Q9HD36 1-182 limits assumed): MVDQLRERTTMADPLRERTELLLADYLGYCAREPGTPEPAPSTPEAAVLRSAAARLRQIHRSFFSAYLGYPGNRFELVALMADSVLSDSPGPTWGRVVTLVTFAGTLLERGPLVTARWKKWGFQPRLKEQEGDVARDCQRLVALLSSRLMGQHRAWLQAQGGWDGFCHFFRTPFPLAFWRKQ
Description: as §1, §2, §3

[4] = biological target: T1, Bfl-1; assay: Bfl-1 TR-FRET assay (FITC-Bid, Tb-anti-GST antibody); assay type: binding
Protocol: TR-FRET assay. For confirmation of FPA results, a TR-FRET assay utilizing terbium- (Tb-) labeled anti-GST antibody (Th-Ab) was developed. […] The reaction mixture was preincubated for 1 h, and TR-fluorescence (TRF) was measured on an M5 plate reader (Molecular Devices) using excitation at 340 nm and emission at […]. The measurements were averaged from 5 readings during 1 ms after an initial delay 0.1 ms. TR-FRET signal was calculated as the ratio of TR-Fluorescence at 520 nm to TR-Fluorescence at […].
For Bfl-1 TR-FRET assays, Bfl-1 protein and FITC-Bid peptide (FITC-Ahx-[…]) (SEQ ID NO: 1) were utilized. Terbium-anti-GST antibody (Tb-anti-GST Ab) was obtained from Invitrogen (San Diego Calif.). The assay buffer contained 25 mM Bis-Tris, pH 7.0, 1 mM TCEP, and 0.005% Tween 20. The Tb-Ab buffer contained 2.5 nM Tb-anti-GST antibody in assay buffer. The Bfl-1/Th-Ab working solution contained 5 nM Bfl-1 in Th-Ab assay buffer. The solution was prepared fresh and kept on ice prior to use. The FITC-Bid working solution contained 5.6 nM FITC-Bid in assay buffer.
For the Bfl-1 TR-FRET dose-response screening protocol, dose-response curves contained 10 concentrations of compounds obtained using 2-fold serial dilution. Compounds were serially diluted in 100% DMSO, and then diluted with water to 10% final DMSO concentration. A 4 μl aliquot of compounds in 10% DMSO was transferred into columns 3-22 of Greiner 384-well white small-volume plates. Columns 1-2 and 23-24 contained 4 μL of 10% DMSO.
Columns 1-2 were reserved for positive controls, and 8 μL of Th-Ab buffer was added using a WellMate bulk dispenser (Matrix). An aliquot of 8 μL of Bfl-1/Th-Ab working solution was added to columns 3-24 of Greiner 384 well white plates using a WellMate bulk dispenser (Matrix). Columns 23-24 represented negative control wells. Plates were incubated for 1 h at 4° C. An 8 μL aliquot of freshly prepared FITC-Bid working solution was added to the whole plate using WellMate bulk dispenser (Matrix). Plates were incubated for 4 h at room temperature protected from direct light. Fluorescence was measured on the M5 plate reader (excitation: 340 nm, emission: 490 and 520 nm, cutoff: 475 and 515 nm, respectively) in Time Resolved (TR) mode with signal integrated for 1 ms after initial delay of 0.1 ms. TR-FRET signal was calculated as the ratio of TR-Fluorescence at 520 nm to TR-Fluorescence at 490 nm. Data analysis was performed using a sigmoidal dose-response equation through non-linear regression.

[5] = system: RS11846 B-lymphoma cell line; assay: Induction of apoptosis, Annexin-FITC/PI flow cytometry; assay type: cell-based, human; settings: 16 hours incubation
Description: To test compounds for their ability to induce apoptosis in cancer cells, the RS11846 B-lymphoma cell line was used. The RS11846 cell line was established from a patient with an aggressive form of diffuse large cell lymphoma, representing a subset of B-lymphoma in humans. This type of human B-lymphoma is characterized by infiltration beyond lymphoid compartment (bone marrow, spleen, lymph nodes, liver and etc.), typically infiltrate into ovary (in female), testis (in male), spinal cord and CNS (central nervous system) therefore given nomenclature of “diffuse.” Histo-pathologically, the RS11846 cell line is diffuse large cell B-lymphoma, thus representing an immature, aggressive form of the disease. […] Therefore, this cell line is suitable for examining biological effects of Bfl-1 antagonists concerned in this patent application.
For the assay to test compounds for their ability to induce apoptosis, the RS11846 B-lymphoma cell line was cultured in RPMI-1640 supplemented by 10% FBS and Penicillin/Streptomycin. The cells were seeded at cell density of half a million cells per ml, and incubation time was 16 hours. In the assay, cell viability was analyzed by the Annexin-FITC/PI method, using flow cytometry, or FACS analysis. Viable cells were defined by Annexin-FITC-negative, PI-negative. Compensation was done using conventional methods and using the Flo-jo program.
IC50 (50% killing) was determined using an extrapolation method based on the finding that biological response is almost linear near at 50% inhibition point when plotted against semi-log scale on X-axis. See, D. J. Finney, Statistical Method in Biological Assay, Griffin, London, 1978. Briefly, % viability was plotted on Y-axis on an ordinary scale, while drug concentration was plotted on X-axis on a semi-log scale. The actual 50% inhibition point is on the line between left-bracket (higher than 50% inhibition) and right bracket (lower than 50% inhibition), and it can be extrapolated on the line on a semi-log scale. Thus, IC50 was extrapolated via left bracketing and right bracketing, and extrapolated on a semi-log scale, and then, re-converted back to an ordinary scale.

[6] = Tables 3-5, read-out: Bfl-1 FP IC50
[7] = Tables 3-5, read-out: Bfl-1 TR FRET IC50

T2 sequence (P10415 1-218 limits assumed): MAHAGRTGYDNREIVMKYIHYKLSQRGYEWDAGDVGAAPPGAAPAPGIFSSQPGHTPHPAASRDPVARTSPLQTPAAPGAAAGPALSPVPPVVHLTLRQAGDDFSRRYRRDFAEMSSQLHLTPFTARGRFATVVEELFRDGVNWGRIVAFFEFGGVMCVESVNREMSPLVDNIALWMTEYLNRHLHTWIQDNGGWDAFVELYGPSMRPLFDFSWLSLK

SMILES	IC50 [1, 6] [nM]	IC50 [4, 7] [µM]	also measured
CC(C)C(C(=O)O)N1C(=O)/C(=C/c2ccc(Br)cc2)SC1=S (stereo not shown) [BH3I-1, (Z)-2-(5-(4-Bromobenzylidene)-4-oxo-2-thioxothiazolidin-3-yl)-3-methylbutanoic acid, reference compound]			IC50 ([1]; conditions not stated, not the assay with 0.005% Tween 20, read-out: Bfl-1 (FP): IC50): 4650 nM; IC50 ([1]; in the presence of 0.005% Tween 20, read-out: IC50 in Bfl-1 FP assay): > 20000 nM; IC50 ([2]; read-out: Bcl-2 (FP): IC50): 1140 nM; IC50 ([3]; read-out: Bcl-B (FP): IC50): 1080 nM
CN1CCN(C2=C(Cl)C(=O)N(c3ccc(Cl)c(Cl)c3)C2=O)CC1 [CID-1180676, 3-chloro-1-(3,4-dichlorophenyl)-4-(4-methylpiperazin-1-yl)pyrrole-2,5-dione]	750	0.56	Bfl-1 FP assay, activity in words ([1]; Bfl-1/FITC-Bid): submicromolar potency; also recorded: potently disrupt; IC50 ([1]; Tables 7-8, Avg where the cell lists several determinations, read-out: Bfl-1 FPA IC50): 617 nM; Bfl-1 TR-FRET assay, activity in words ([4]; Bfl-1/FITC-Bid): submicromolar potency; also recorded: potently disrupt; IC50 ([4]; Tables 7-8, Avg where the cell lists several determinations, read-out: Bfl-1 TR-FRET IC50): 0.479 µM; Bfl-1 TR-FRET IC50 (uM), individual determinations ([4]; Tables 7-8, single values listed before the Avg): nofit; IC50 ([4]; Tables 7-8, single values listed before the Avg, read-out: Bfl-1 TR-FRET IC50 (uM), individual determinations): 0.304 µM and 0.443 µM and 0.317 µM and 0.471 µM and 0.445 µM and 1.09 µM and 0.475 µM and 0.584 µM and 0.186 µM; Competition for binding of a BH3 peptide to Bcl-2, in words ([2]; Bcl-2/FITC-Bim complex): limited activity; Effect on complex of Bcl-B/FITC-TR3-R8, in words [3]: did not affect
CCOC(=O)CS(=O)(=O)c1nc(-c2ccccc2)cc(C(F)(F)F)n1 [Compound 3]			induction of apoptosis [5]: induction of apoptosis
CCOC(=O)CS(=O)(=O)c1nc(-c2ccc(F)cc2)cc(C(F)(F)F)n1 [Compound 9]			induction of apoptosis [5]: induction of apoptosis
COc1ccc(-c2cc(N)n(S(=O)(=O)c3c(F)c(F)c(F)c(F)c3F)n2)cc1OC [Compound 10]			induction of apoptosis [5]: induction of apoptosis
COc1ccc(-c2cc(C(F)(F)F)nc(S(C)(=O)=O)n2)cc1OC [Compound 11]			induction of apoptosis [5]: induction of apoptosis
CN1CCN(C2=C(Cl)C(=O)N(c3c(Cl)cccc3Cl)C2=O)CC1 [MLS-0090830]	13700	3.72	
CN1CCN(C2=C(Cl)C(=O)N(c3cccc(Cl)c3Cl)C2=O)CC1 [MLS-0090831]	8740	2.56	
Cc1ccc(Cl)c(N2C(=O)C(Cl)=C(N3CCN(C)CC3)C2=O)c1Cl [MLS-0090832]	23900	11.1	
CN1CCN(C2=C(Cl)C(=O)N(c3ccccc3Cl)C2=O)CC1 [MLS-0090833]	2160	1.45	
CN1CCN(C2=C(Cl)C(=O)N(c3cccc(Cl)c3)C2=O)CC1 [MLS-0090834]	2150	1.17	
C[C@@H]1CN(C2=C(Cl)C(=O)N(c3ccc(Cl)c(Cl)c3)C2=O)CCN1 [MLS-0090857]	1160	1.03	
C[C@H]1CN(C2=C(Cl)C(=O)N(c3ccc(Cl)c(Cl)c3)C2=O)CCN1 [MLS-0090858]	1320	1.25	
O=C1C(Cl)=C(N2CCN(C/C=C/c3ccccc3)CC2)C(=O)N1c1ccc(Cl)c(Cl)c1 [MLS-0090859]	590	0.73	
CCN1CCN(C2=C(Cl)C(=O)N(c3ccc(Cl)c(Cl)c3)C2=O)CC1 [MLS-0090860]	1670	0.97	
O=C1C(Cl)=C(N2CCN(Cc3ccc4c(c3)OCO4)CC2)C(=O)N1c1ccc(Cl)c(Cl)c1 [MLS-0090865]	4070	2.14	
O=C1C(Cl)=C(N2CCN(Cc3ccccc3)CC2)C(=O)N1c1ccc(Cl)c(Cl)c1 [MLS-0090866]	1620	1.64	
O=C1C(Cl)=C(N2CCN(c3ncccn3)CC2)C(=O)N1c1ccc(Cl)c(Cl)c1 [MLS-0090868]	1900	2.46	
O=C1C(Cl)=C(N2CCN(CCO)CC2)C(=O)N1c1ccc(Cl)c(Cl)c1 [MLS-0090874]	560	0.59	
CC1C(=O)NCCN1C1=C(Cl)C(=O)N(c2ccc(Cl)c(Cl)c2)C1=O (stereo not shown) [MLS-0090884]	5630	2.03	
